This passage reports normalised viability results from the supplement of paper PMC4862054.

The structures appear in SMILES notation. Several values for one entry are separate records, joined by “and”; a condition that tells them apart may be missing. Identical values can stand only once.

What all share (test): normalised viability (% of control), CellTiter-Blue; higher = more viable cells (about 100 = DMSO control)
Holding throughout (details): incubation time: 72 h
(In general: The colour change of resazurin is a common sign of viable cells or microbes.)

Test [1] deals with CAL-148. As to the method:
(§1)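 DSRT, CellTiter-Blue viability, 72 h incubation. Signal is normalised to DMSO and benzethonium chloride controls. Value is the normalised response at dose 9.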

The test system of test [2] is CAL-85-1. The method, then:
as §1

For test [3], the system named is MDA-MB-453. The method, then:
as §1

The test system of test [4] is CAL-51. The method, then:
as §1

Test [5] deals with HDQ-P1. The method, then: as §1
For test [6], the system named is DU-4475. The method, then:
as §1

Test [7] relates to CAL-148. The method, then:
(§2)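 DSRT, CellTiter-Blue viability, 72 h incubation. Signal is normalised to DMSO and benzethonium chloride controls. Value is the normalised response at dose 8.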
The source holds these as a separate data set.

The subject of test [8] is CAL-85-1. The method, then:
as §2
The source holds these as a separate data set.

Test [9] has as its system MDA-MB-453. The method, then:
as §2
The source holds these as a separate data set.

Test [10] relates to CAL-51. As to the method:
as §2
The source holds these as a separate data set.

Test [11] deals with HDQ-P1. As to the method: as §2
The source holds these as a separate data set.

Test [12] has as its system DU-4475. As to the method:
as §2
The source holds these as a separate data set.

In the case of `Cc1cccc(-c2nn3c(c2-c2ccnc4ccc(C(N)=O)cc24)CCC3)n1` (1000 nM), the normalised viability in the test with CAL-148 [1] is 79.7%; in the test with CAL-85-1 [2], 101%; in the test on MDA-MB-453 [3] it was 104%; with CAL-51 [4], 103%; in the test on HDQ-P1 [5], 133%; in the test on DU-4475 [6] it was 124%.
On to `Cn1cc(CNCC2CCN(c3ncc(C(=O)NO)cn3)CC2)c2ccccc21` (1000 nM), for which the normalised viability in the test with CAL-148 [1] was found to be 0.7%; in the test on CAL-85-1 [2] it was 3.26%; with MDA-MB-453 [3], 2.12%; in the test on CAL-51 [4], 2.6%; in the test with HDQ-P1 [5], 18.9%; in the test on DU-4475 [6], 3.03%.
As to `O=C(NC[C@H](O)CO)c1ccncc1Nc1ccc(I)cc1F` (10000 nM), the normalised viability with CAL-148 [1] was 70.5%; in the test with CAL-85-1 [2], 39.9%; with MDA-MB-453 [3] it was 37.1%; in the test with CAL-51 [4], 65%; in the test on HDQ-P1 [5], 46.3%; with DU-4475 [6], -0.44%.
Take `Nc1nc(=O)c2c([nH]1)NCC(CNc1ccc(C(=O)N[C@@H](CCC(=O)O)C(=O)O)cc1)N2C=O` (mixture of isomers) [Folinic acid] (990 nM): the normalised viability with CAL-148 [1] was determined as 105%; with CAL-85-1 [2], 98%; in the test with MDA-MB-453 [3] it was 103%; in the test on CAL-51 [4], 94.1%; in the test on HDQ-P1 [5] it was 86.9%; in the test with DU-4475 [6] it was 115%.
As for `O=C(Nc1c[nH]nc1-c1nc2ccc(CN3CCOCC3)cc2[nH]1)NC1CC1` [AT9283] (10000 nM), the normalised viability with CAL-148 [1] is 1.55%; in the test with CAL-85-1 [2] it was -0.09%; in the test on MDA-MB-453 [3], 11.2%; in the test on CAL-51 [4] it was 4.48%; in the test with HDQ-P1 [5], 7.44%; in the test with DU-4475 [6], -1.62%.
In the case of `CCC/C=C/C=C/C(=O)O[C@H]1/C(=C/C(=O)OC)C[C@H]2C[C@H]([C@@H](C)O)OC(=O)C[C@H](O)C[C@@H]3C[C@H](OC(C)=O)C(C)(C)[C@](O)(C[C@@H]4C/C(=C/C(=O)OC)C[C@H](/C=C/C(C)(C)[C@]1(O)O2)O4)O3` [Bryostatin 1] (30 nM), the normalised viability in the test with CAL-148 [7] came to 110%; in the test with CAL-85-1 [8], 111%; in the test with MDA-MB-453 [9], 96.6%; in the test with CAL-51 [10], 95.3%; in the test with HDQ-P1 [11] it was 100%; with DU-4475 [12], 65%.
With `CO[C@@H](C(=O)N1Cc2[nH]nc(NC(=O)c3ccc(N4CCN(C)CC4)cc3)c2C1)c1ccccc1` [Danusertib] (3000 nM), the normalised viability amounted to 53.5% in the test on CAL-148 [7]; 40.5% in the test on CAL-85-1 [8]; 34.2% in the test with MDA-MB-453 [9]; 25.9% in the test with CAL-51 [10]; 27.8% with HDQ-P1 [11]; 23.1% with DU-4475 [12].
As for `Cc1nc(Nc2ncc(C(=O)Nc3c(C)cccc3Cl)s2)cc(N2CCN(CCO)CC2)n1` [Dasatinib] (300 nM), the normalised viability is 90% and 89.1% with CAL-148 [7]; 51.2% and 43.6% with CAL-85-1 [8]; 99.2% and 103% with MDA-MB-453 [9]; 41.5% and 39.9% in the test on CAL-51 [10]; 9.87% and 10.7% in the test on HDQ-P1 [11]; 102% and 104% in the test with DU-4475 [12].
With `O=S(=O)(c1cccc2cnccc12)N1CCCNCC1` [Fasudil] (3000 nM), the normalised viability in the test with CAL-148 [7] was 81.2%; with CAL-85-1 [8], 101%; with MDA-MB-453 [9] it was 99.4%; in the test with CAL-51 [10] it was 118%; with HDQ-P1 [11], 121%; in the test on DU-4475 [12], 113%.
Consider `O=S(=O)(c1cccc2cnccc12)N1CCCNCC1` [Fasudil] (10000 nM), for which the normalised viability in the test on CAL-148 [1] came out at 82.3%; with CAL-85-1 [2] it was 99.3%; with MDA-MB-453 [3], 57.8%; in the test with CAL-51 [4], 109%; in the test on HDQ-P1 [5], 180%; with DU-4475 [6], 101%.
`CS(=O)(=O)N1CCN(Cc2cc3nc(-c4cccc5[nH]ncc45)nc(N4CCOCC4)c3s2)CC1` [GDC-0941] (3000 nM): the normalised viability with CAL-148 [7] came to 18.6%; in the test with CAL-85-1 [8], 31.9%; in the test on MDA-MB-453 [9], 10.6%; in the test with CAL-51 [10] it was 14.3%; with HDQ-P1 [11], 14.5%; in the test with DU-4475 [12], 104%.
Take `CS(=O)(=O)N1CCN(Cc2cc3nc(-c4cccc5[nH]ncc45)nc(N4CCOCC4)c3s2)CC1` [GDC-0941] (10000 nM): the normalised viability was 0.59% in the test on CAL-148 [1]; 13.3% in the test with CAL-85-1 [2]; 5.58% in the test with MDA-MB-453 [3]; 2.35% in the test on CAL-51 [4]; 12.8% with HDQ-P1 [5]; -0.76% in the test on DU-4475 [6].
`Cc1c(CN2CCN(C(=O)[C@H](C)O)CC2)sc2c(N3CCOCC3)nc(-c3cnc(N)nc3)nc12` [GDC-0980] (3000 nM): the normalised viability with CAL-148 [7] was determined as 5.28%; in the test with CAL-85-1 [8], 16.9%; with MDA-MB-453 [9], 6.67%; with CAL-51 [10] it was 7.42%; with HDQ-P1 [11] it was 14.2%; in the test with DU-4475 [12], 19.4%.
With `Nc1cccc2c1CN(C1CCC(=O)NC1=O)C2=O` (stereo not given) [Lenalidomide] (3000 nM), the normalised viability in the test on CAL-148 [7] is 80.2% and 98.3%; in the test on CAL-85-1 [8], 88.6% and 90.2%; with MDA-MB-453 [9], 96.9% and 117%; in the test with CAL-51 [10], 109% and 105%; in the test with HDQ-P1 [11], 93.5% and 92.2%; in the test on DU-4475 [12] it was 101% and 100%.
As for `C[C@]12O[C@H](C[C@]1(O)CO)n1c3ccccc3c3c4c(c5c6ccccc6n2c5c31)CNC4=O` [Lestaurtinib] (300 nM), the normalised viability was 75.9% in the test with CAL-148 [7]; 65% with CAL-85-1 [8]; 50.2% with MDA-MB-453 [9]; 76.5% with CAL-51 [10]; 92.4% in the test on HDQ-P1 [11]; 26.7% with DU-4475 [12].
As to `O=C1c2c(O)ccc(O)c2C(=O)c2c(NCCNCCO)ccc(NCCNCCO)c21` [Mitoxantrone] (300 nM), the normalised viability amounted to 12.7% with CAL-148 [7]; 59.1% with CAL-85-1 [8]; 66% in the test with MDA-MB-453 [9]; 28% in the test on CAL-51 [10]; 52.5% in the test with HDQ-P1 [11]; 9.52% in the test on DU-4475 [12].
Consider `Nc1ccccc1NC(=O)c1ccc(CNc2nccc(-c3cccnc3)n2)cc1` [Mocetinostat] (3000 nM), for which the normalised viability in the test on CAL-148 [7] worked out at 37.3%; with CAL-85-1 [8] it was 23.6%; with MDA-MB-453 [9], 20.6%; in the test on CAL-51 [10] it was 51.7%; in the test with HDQ-P1 [11], 71.6%; in the test on DU-4475 [12], 5.41%.
For `COc1nc(N)nc2c1ncn2[C@@H]1O[C@H](CO)[C@@H](O)[C@@H]1O` [Nelarabine] (3000 nM), the normalised viability is 90.6% and 84.7% in the test on CAL-148 [7]; 94.5% and 98% in the test with CAL-85-1 [8]; 86.7% and 106% in the test with MDA-MB-453 [9]; 102% and 97.6% with CAL-51 [10]; 74.7% and 87.7% in the test with HDQ-P1 [11]; 121% and 112% in the test with DU-4475 [12].
For the molecule `Cc1ccc(Nc2nccc(N(C)c3ccc4c(C)n(C)nc4c3)n2)cc1S(N)(=O)=O` [Pazopanib] (3000 nM), the normalised viability in the test on CAL-148 [7] came out at 67.7%; in the test on CAL-85-1 [8] it was 96%; with MDA-MB-453 [9], 42.5%; with CAL-51 [10] it was 87.6%; in the test with HDQ-P1 [11] it was 77.9%; in the test with DU-4475 [12] it was 110%.
Consider `O=C(CCBr)N1CCN(C(=O)CCBr)CC1` [Pipobroman] (3000 nM), for which the normalised viability in the test with CAL-148 [7] was determined as 104%; in the test with CAL-85-1 [8], 102%; in the test with MDA-MB-453 [9], 108%; with CAL-51 [10], 124%; in the test with HDQ-P1 [11], 100%; in the test with DU-4475 [12], 106%.
With `c1cc(CN2CCCNCCNCCCNCC2)ccc1CN1CCCNCCNCCCNCC1` [Plerixafor] (750 nM), the normalised viability amounted to 79.1% with CAL-148 [7]; 93% in the test with CAL-85-1 [8]; 92.5% in the test on MDA-MB-453 [9]; 103% with CAL-51 [10]; 119% in the test on HDQ-P1 [11]; 95.9% with DU-4475 [12].
Regarding `c1cc(CN2CCCNCCNCCCNCC2)ccc1CN1CCCNCCNCCCNCC1` [Plerixafor] (2500 nM), the normalised viability with CAL-148 [1] amounted to 83.5%; in the test on CAL-85-1 [2], 97%; in the test with MDA-MB-453 [3], 103%; in the test with CAL-51 [4], 111%; in the test on HDQ-P1 [5], 125%; with DU-4475 [6], 99.3%.
Consider `C[C@]12C=CC(=O)C=C1CC[C@@H]1[C@@H]2[C@@H](O)C[C@@]2(C)[C@H]1CC[C@]2(O)C(=O)CO` [Prednisolone] (3000 nM), for which the normalised viability in the test with CAL-148 [7] was 96%; with CAL-85-1 [8], 117%; in the test on MDA-MB-453 [9], 75.4%; with CAL-51 [10], 102%; in the test on HDQ-P1 [11], 121%; in the test on DU-4475 [12], 106%.
For the molecule `CCN(CC)CCNC(=O)c1c(C)[nH]c(/C=C2\C(=O)Nc3ccc(F)cc32)c1C` [Sunitinib] (300 nM), the normalised viability in the test on CAL-148 [7] was 93.2% and 108%; in the test on CAL-85-1 [8], 107% and 105%; in the test on MDA-MB-453 [9] it was 101% and 83.8%; with CAL-51 [10], 113% and 96%; with HDQ-P1 [11], 97.1% and 115%; in the test on DU-4475 [12] it was 102% and 94.5%.
Turning to `CC[C@@]1(O)C(=O)OCc2c1cc1n(c2=O)Cc2cc3c(CN(C)C)c(O)ccc3nc2-1` [Topotecan] (300 nM), the normalised viability in the test on CAL-148 [7] amounted to 31.4%; in the test on CAL-85-1 [8] it was 66.9%; in the test on MDA-MB-453 [9], 69.3%; with CAL-51 [10], 66.2%; with HDQ-P1 [11], 87.8%; with DU-4475 [12] it was 47.5%.
